Values of other authors in US4127526A, “Novel tetradecapeptides, intermediates therefor, and compositions and methods employing said tetradecapeptides” (priority 1977, dated 1978).

Legend:
[1] = injected directly into the brain of the rat
[2] = tested on: brain opiate receptor sites

H-Tyr-Gly-Gly-Phe-Met-OH [methionine enkephalin]
analgesic activity [1]: weak analgesic agent of short duration
activity in bioassays for opiate activity (opiate activity): very active
binding to partially purified brain opiate receptor sites [2]: binds stereo-specifically
